Experimental data: patent publication US8778896B2, “Levoisovalerylspiramycin I, II or III, preparations, preparation methods and uses thereof” (Shenyang Tonglian Group Co., Ltd., priority 2010, dated 2014)
In brackets after ≈: the same amount, converted by molar mass.

Experiments:
S. epidermidis (115) = experiment: Clinical isolates, agar double dilution method; assay type: cell-based; conditions: Staphylococcus epidermidis, 115 clinical isolates of S. epidermidis; for MIC50: read-out: MIC50; for MIC90: read-out: MIC90
gonococcus (10) = experiment: Clinical isolates, agar double dilution method; assay type: cell-based; conditions: 10 clinical isolates of gonococcus; for MIC50: read-out: MIC50; for MIC90: read-out: MIC90
staphylococcus aureus16 = experiment: MIC against the infecting test organism; assay type: cell-based, staphylococcus aureus; conditions: read-out: MIC
[1] = system: pyogenic streptococcus 772; experiment: Curative effect on mouse with abdominal infection (ED50); assay type: in vivo; conditions: Streptococcus, 772, 168 h, pyogenic streptococcus 772, challenging dose 6.9 × 10^3 CFU/0.5 ml, deaths in 7 days, Bliss, read-out: ED50
Protocol: (§1) Test method: preparation of infection bacterial liquid: taking out the test bacterial liquid which is kept in a refrigerator at −80[…] to room temperature for about 1 h, then inoculating streptococcus pneumonia, pyogenic streptococcus and enterococcus absorbing 0.1 ml bacterial liquid respectively to 2 ml MH broth (add 10% inactivated horse serum), and inoculating 0.1 ml bacterial liquid of staphylococcus aureus to 2 ml MH broth according to the same method above; putting it in an incubator at 37[…] to be cultivated for 18 h, to obtain original bacterial liquid; diluting the original bacterial liquid with 5% gastric mucin to make animals infected with 100% lethal bacteria, to obtain infection bacterial liquid.
(§2) The clinical route of administration of carrimycin is proposed to be oral administration, thus intragastric administration is adopted in carrimychin test. Levoisovalerylspiramycin I (obtained in Embodiment 1) and of crystalline compound of levoisovalerylspiramycin I (prepared in Embodiment 27) are fed to animals via […].
(§3) After the mice are infected, respectively feed each mouse 0.2 ml via intragastric administration at 0.5 to 6 h, and they have no adverse reaction. Observe the number of deaths in 7 days, and calculate the 50% effective dose (ED50) of each drug for the infected mouse and compare the protective effect of drugs by Bliss program.

[2] = system: pyogenic streptococcus 102; experiment: as above; assay type: in vivo; conditions: Streptococcus, 102, 168 h, pyogenic streptococcus 102, challenging dose 7.8 × 10^4 CFU/0.5 ml, deaths in 7 days, Bliss, read-out: ED50
Protocol: as §1, §2, §3

[3] = system: pyogenic streptococcus 119; experiment: as above; assay type: in vivo; conditions: Streptococcus, 119, 168 h, pyogenic streptococcus 119, challenging dose 4.9 × 10^4 CFU/0.5 ml, deaths in 7 days, Bliss, read-out: ED50
Protocol: as §1, §2, §3

[4] = system: pyogenic streptococcus 772; experiment: MIC against the infecting test organism; assay type: cell-based; conditions: read-out: MIC
[5] = system: Chlamydia Pneumoniae CWL-029; experiment: Chlamydia in vitro MIC, HEp-2 cells, immunofluorescence; assay type: cell-based; conditions: Chlamydia pneumoniae, 72 h, Chlamydia Pneumoniae CWL-029, HEp-2 cells, read-out: MIC
enterococcus32 [6] = experiment: Curative effect on mouse with abdominal infection (ED50); assay type: in vivo, enterococcus; conditions: Enterococcus, 168 h, enterococcus32, challenging dose 5.4 × 10^4 CFU/0.5 ml, deaths in 7 days, Bliss, read-out: ED50
Protocol: as §1, §2, §3

enterococcus (106) = experiment: Clinical isolates, agar double dilution method; assay type: cell-based; conditions: 106 clinical isolates of enterococcus; for MIC50: read-out: MIC50; for MIC90: read-out: MIC90
[7] = system: streptococcus pneumoniae3; experiment: MIC against the infecting test organism; assay type: cell-based, streptococcus pneumoniae; conditions: read-out: MIC
[8] = system: pyogenic streptococcus (93); experiment: Clinical isolates, agar double dilution method; assay type: cell-based; conditions: 93 clinical isolates of pyogenic streptococcus; for MIC50: read-out: MIC50; for MIC90: read-out: MIC90
enterococcus32 [9] = experiment: MIC against the infecting test organism; assay type: cell-based, enterococcus; conditions: Enterococcus, read-out: MIC
[10] = system: streptococcus pneumoniae57; experiment: MIC against the infecting test organism; assay type: cell-based, streptococcus pneumoniae; conditions: read-out: MIC
[11] = system: streptococcus pneumoniae18; experiment: MIC against the infecting test organism; assay type: cell-based, streptococcus pneumoniae; conditions: read-out: MIC
[12] = system: staphylococcus aureus (155); experiment: Clinical isolates, agar double dilution method; assay type: cell-based; conditions: 155 clinical isolates of staphylococcus aureus; for MIC50: read-out: MIC50; for MIC90: read-out: MIC90
[13] = system: pyogenic streptococcus 119; experiment: MIC against the infecting test organism; assay type: cell-based; conditions: read-out: MIC
staphylococcus aureus21 = experiment: MIC against the infecting test organism; assay type: cell-based, staphylococcus aureus; conditions: read-out: MIC
[14] = system: Chlamydia Trachomatis B/TW-5/OT; experiment: Chlamydia in vitro MIC, McCoy cells, immunofluorescence; assay type: cell-based; conditions: 48 hours, read-out: MIC
[15] = system: Mycoplasma Urealyticum and Mycoplasma Pneumoniae strains; experiment: Mycoplasma in vitro MIC (U-PPLO broth); assay type: cell-based
Protocol: 1. Test methods: adding U-PPLO 0.8 ml to each pore of aseptic 12-pore cell culture plate (adding 0.9 ml to inoculum control pore and 1.0 ml to medium control pore).
2. Add 10^4CCU/ml Uu inoculum 0.1 ml to each experimental pore. The final dose in the pore is 10^3CCU/ml (the medium control pore will not be added with inoculum).
3. Divide into 3 groups (100 μg/ml, 10 μg/ml and 1 μg/ml antibiotic stock solution), Use aseptic Tip to add antibiotic for test to each pore: 100 μl, 50 μl, 25 μl, 12.5 μl according to the double degradation concentration gradient. (The inoculum and medium control pores will not be added with the antibiotic, and meanwhile the antibiotic control pore is arranged.)
4. Blend all pores evenly. Seal the culture plate by tapes and place it in a 37[…] box for culture.
5. On 17-24 hours after the test, observe and record the Uu growth situation. When Uu inoculum control pore presents a positive growth, the minimal antibiotic concentration, which can suppress the growth of Uu, is the MIC of sample.

Structure (SMILES)	MIC50 (S. epidermidis (115)) [µg/mL]	MIC90 (S. epidermidis (115)) [µg/mL]	MIC range (gonococcus (10)) [µg/mL]	MIC50 (gonococcus (10)) [µg/mL]	MIC90 (gonococcus (10)) [µg/mL]	MIC (staphylococcus aureus16) [µg/mL]	ED50 [1] [mg/kg]	ED50 [2] [mg/kg]	ED50 [3] [mg/kg]	MIC [4] [µg/mL]	MIC [5] [µg/mL]	ED50 (enterococcus32 [6]) [mg/kg]	MIC50 (enterococcus (106)) [µg/mL]	MIC90 (enterococcus (106)) [µg/mL]	MIC [7] [µg/mL]	MIC50 [8] [µg/mL]	MIC90 [8] [µg/mL]	MIC (enterococcus32 [9]) [µg/mL]	MIC [10] [µg/mL]	MIC [11] [µg/mL]	also measured
CC[C@H]1OC(=O)[C@H](C)[C@@H](O[C@H]2C[C@@](C)(OC)[C@@H](O)[C@H](C)O2)[C@H](C)[C@@H](O[C@@H]2O[C@H](C)C[C@H](N(C)C)[C@H]2O)[C@](C)(O)C[C@@H](C)CN(C)[C@H](C)[C@@H](O)[C@]1(C)O [azithromycin, reference compound]	8 (≈ 10.7 µM)	> 64	0.12 to 64	2 (≈ 2.67 µM)	8 (≈ 10.7 µM)	0.5 (≈ 0.668 µM)	46.9	159	68.5	0.25 (≈ 0.334 µM)	0.032 (≈ 0.0427 µM)	147	8 (≈ 10.7 µM)	> 64	0.12 (≈ 0.16 µM)	0.5 (≈ 0.668 µM)	> 64	1 (≈ 1.34 µM)	0.12 (≈ 0.16 µM)	0.06 (≈ 0.0801 µM)	MIC50 [12]: 2 µg/mL (≈ 2.67 µM); MIC90 [12]: > 64 µg/mL; MIC [13]: 0.25 µg/mL (≈ 0.334 µM); MIC (staphylococcus aureus21): 4 µg/mL (≈ 5.34 µM); MIC [14]: 0.5 µg/mL (≈ 0.668 µM)
CC[C@H]1OC(=O)[C@H](C)[C@@H](O[C@H]2C[C@@](C)(OC)[C@@H](O)[C@H](C)O2)[C@H](C)[C@@H](O[C@@H]2O[C@H](C)C[C@H](N(C)C)[C@H]2O)[C@](C)(O)C[C@@H](C)C(=O)[C@H](C)[C@@H](O)[C@]1(C)O [erythrocin, reference compound]	8 (≈ 10.9 µM)	> 64	0.12 to 64	1 (≈ 1.36 µM)	8 (≈ 10.9 µM)	1 (≈ 1.36 µM)	101	361	234	0.5 (≈ 0.681 µM)	≤ 0.016	175	4 (≈ 5.45 µM)	> 64	1 (≈ 1.36 µM)	0.5 (≈ 0.681 µM)	> 64	2 (≈ 2.73 µM)	0.25 (≈ 0.341 µM)	0.06 (≈ 0.0818 µM)	MIC ([15]; Mycoplasma, determined 4 times, final MIC (24 h), read-out: MIC): 5 µg/mL (≈ 6.81 µM); Uu resistant effect ([15]; in words): poorest; MIC50 [12]: 1 µg/mL (≈ 1.36 µM); MIC90 [12]: > 64 µg/mL; MIC [13]: 0.5 µg/mL (≈ 0.681 µM); MIC (staphylococcus aureus21): 4 µg/mL (≈ 5.45 µM); MIC [14]: 0.5 µg/mL (≈ 0.681 µM)
